Data reported in US20240165154A1, “METHODS AND AGENTS FOR MODULATING ADOPTIVE IMMUNOTHERAPY” (The Regents of the University of California, priority 2021, published 2024).

Tests used:
[1] = system: CD8+ T cells from spleens of BL/6J mice; test: T cell proliferation assay (CELLTRACE Violet) of MSCV-transduced CD8+ T cells in metabolic conditions; assay type: cell-based, mouse; settings: 48 hr
Protocol: Spleens from BL/6J mice (Jackson Laboratory #000664; https://www.jax.org/strain/000664) were harvested, minced, resuspended in fluorescence-activated cell sorting (FACS) buffer (phosphate buffered saline (PBS)+2% fetal bovine serum (FBS)+1 mM ethylene diamine tetra-acetic acid (EDTA) (THERMOFISHER SCIENTIFIC™, #15575020)), and strained through a 40-micron nylon mesh filter (Millipore Sigma, CLS431750-50EA). The cellular suspension was then centrifuged at 600× g for 10 minutes before isolating CD8+ T cells using standard protocol from an immunomagnetic separation kit (EASYSEP™ Mouse CD8+ T Cell Isolation Kit, STEMCELL™ Technologies, #19853).
For activation, 5×10^6 stained CD8+ T cells were resuspended in 1 mL of complete T cell medium (RPMI 1640+10% fetal bovine serum (FBS)+1 mM Na Pyruvate+10 mM 4-(2-hydroxyethyl)-1-piperazineethanesulfonic acid (HEPES)+1% penicillin/streptomycin (pen/strep)+0.1% beta-mercaptoethanol) supplemented with 2 ug/mL anti-CD28 clone 37.51 (BIOXCELL™, #BE0015-1) and plated into one well of a 12 well plate coated with 10 micrograms/mL (μg/mL) of anti-CD3e clone 2C11 (BIOXCELL™, #BE0001-1). 24 hours later, plates were lightly spun down at 100× g for 2 minutes, before removing 800 ul of supernatant. 1 mL of T cell media containing concentrated virus was then overlaid, before centrifugation at 800×g for 1 hour at 32C (32° C.). […]

[2] = system: B16 melanoma cell line constitutively expressing GFP; test: B16 melanoma proliferation/survival assay in HG, LG, LG+C (GFP positivity as proxy for viability); assay type: cell-based; settings: starvation (low glucose, LG) conditions + cellobiose (+C)
Excerpt: The protocol for proliferation of the B16 melanoma tumor cell line (FIG. 19) constitutively expressing GFP is identical to the other proliferation assays described above, minus the prior transfection with plasmids.
In order to study the effects of cellobiose on tumors, the high glucose (HG), low glucose (LG), and low glucose+cellobiose (LG+C) in vitro studies of FIGS. 18A-18B were repeated using a B16 melanoma cell line constitutively expressing GFP.

[3] = after intravenous infusion; cited from earlier work

## O=C[C@H](O)[C@@H](O)[C@H](O[C@@H]1O[C@H](CO)[C@@H](O)[C@H](O)[C@H]1O)[C@H](O)CO [cellobiose]
[1]; low glucose + cellobiose (LG+C) vs low glucose
  T-cell proliferation (CELLTRACE VIOLET) of mCh+ GFP+ cells co-transduced with CDT-1 and GH1-1: rescued T-cell proliferation
[1]; low glucose environment when cellobiose was added
  wild-type (WT) T-cell proliferation: minor increase
[2]
  B16 melanoma tumor survival (GFP positivity as proxy for cell viability): did not promote B16 melanoma tumor survival
[3]
  excretion in the urine: vast majority of cellobiose is excreted in the urine
